Source: PubChem BioAssay AID330 (DTP/NCI, 2004)
“And” between values parts separate entries of the source, which are not always exact repeats. Equal values may be shown once. Inconclusive results and toxic doses are left out. The calls were made as follows: active = survival T/C of 150% or more; inactive = T/C below 125% in these data.

System: P388 leukemia ip, CD2F1 mice, survival T/C
Test: NCI In Vivo Anticancer Drug Screen. Data for tumor model P388 Leukemia (intraperitoneal) in CD2F1 (CDF1) mice
Conditions: endpoint: median survival time, higher = longer survival
Summary of the method: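 Mice carrying the transplanted tumor received test compound or vehicle. Survival was recorded in each group, and the value is the treated-group measurement divided by that of the vehicle-treated control group.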

[1] = dose: 50.0 mg/kg/injection, schedule: Q01DX005 (ip), vehicle: Klucel (hydroxypropylcellulose) (HPC)
[2] = dose: 100.0 mg/kg/injection, schedule: Q01DX005 (ip), vehicle: Klucel (hydroxypropylcellulose) (HPC)
[3] = dose: 25.0 mg/kg/injection, schedule: Q01DX009 (ip), vehicle: saline
[4] = dose: 50.0 mg/kg/injection, schedule: Q01DX009 (ip), vehicle: saline
[5] = dose: 200.0 mg/kg/injection, schedule: Q01DX009 (ip), vehicle: saline
[6] = dose: 50.0 mg/kg/injection, schedule: Q01DX005 (ip), vehicle: saline with Tween-80
[7] = dose: 100.0 mg/kg/injection, schedule: Q01DX005 (ip), vehicle: saline with Tween-80
[8] = dose: 200.0 mg/kg/injection, schedule: Q01DX005 (ip), vehicle: saline with Tween-80
[9] = dose: 200.0 mg/kg/injection, schedule: Q01DX005 (ip), vehicle: Klucel (hydroxypropylcellulose) (HPC)
[10] = dose: 7.5 mg/kg/injection, schedule: Q01DX005 (ip), vehicle: saline with Tween-80
[11] = dose: 15.0 mg/kg/injection, schedule: Q01DX005 (ip), vehicle: saline with Tween-80
[12] = dose: 60.0 mg/kg/injection, schedule: Q01DX005 (ip), vehicle: saline with Tween-80
[13] = dose: 120.0 mg/kg/injection, schedule: Q01DX005 (ip), vehicle: saline with Tween-80
[14] = dose: 240.0 mg/kg/injection, schedule: Q01DX005 (ip), vehicle: saline with Tween-80
[15] = dose: 12.5 mg/kg/injection, schedule: Q01DX009 (ip), vehicle: saline
[16] = dose: 25.0 mg/kg/injection, schedule: Q01DX001 (ip), vehicle: saline
[17] = dose: 50.0 mg/kg/injection, schedule: Q01DX001 (ip), vehicle: saline

Measured: T/C

CCN(c1ccccc1C(=O)O)S(=O)(=O)c1ccc(C)cc1
inactive: [1] 104 % of control | [2] 106 % of control

O=C(O)C(CCc1ccccc1)NCc1ccccc1 (stereo not given)
inactive: [3] 102 % of control | [4] 88 % of control | dose: 100.0 mg/kg/injection, schedule: Q01DX009 (ip), vehicle: saline 88 % of control and 94 % of control | [5] 95 % of control | dose: 400.0 mg/kg/injection, schedule: Q01DX009 (ip), vehicle: saline 89 % of control

CCCCCCOCCN1CCN(CCCN2c3ccccc3Sc3ccc(C(F)(F)F)cc32)CC1
inactive: dose: 3.12 mg/kg/injection, schedule: Q01DX009 (ip), vehicle: saline with Tween-80 100 % of control

CC(C)CCCC(C)C1CCC2C3CCC4CC5(C)C(CC4(C)C3CCC12C)C(=O)C5(Cl)Cl (stereo not given)
inactive: [6] 96 % of control | [7] 100 % of control | [8] 99 % of control

CCCC1CCCC[N+]1(C)[B-](F)(F)F (stereo not given)
inactive: dose: 3.12 mg/kg/injection, schedule: Q01DX005 (ip), vehicle: saline 100 % of control | dose: 6.25 mg/kg/injection, schedule: Q01DX005 (ip), vehicle: saline 99 % of control | dose: 12.5 mg/kg/injection, schedule: Q01DX005 (ip), vehicle: saline 103 % of control | dose: 25.0 mg/kg/injection, schedule: Q01DX005 (ip), vehicle: saline 100 % of control and 102 % of control

CCOC(=O)[C@H]1CC[C@@H](C(=O)OCC)N1Sc1ccc([N+](=O)[O-])cc1[N+](=O)[O-]
inactive: [6] 102 % of control | [7] 102 % of control | [8] 102 % of control

C/C(=C1/N=C(c2ccccc2)OC1=O)c1cccs1
inactive: [1] 106 % of control | [2] 100 % of control | [9] 96 % of control

C=CCOc1cc2c(cc1OCC=C)C(=O)c1cc3c(cc1C2=O)OCO3
inactive: [10] 95 % of control | [11] 93 % of control

CC(C(=O)c1cc(Cl)cc(Cl)c1O)C1(O)C(=O)Nc2ccccc21 (stereo not given)
inactive: [12] 107 % of control | [13] 100 % of control | [14] 99 % of control

COC(=O)C(O)c1cccc(OC)c1 (stereo not given)
inactive: dose: 100.0 mg/kg/injection, schedule: Q04DX003 (ip), vehicle: saline with Tween-80 113 % of control | dose: 200.0 mg/kg/injection, schedule: Q04DX003 (ip), vehicle: saline with Tween-80 100 % of control | dose: 400.0 mg/kg/injection, schedule: Q04DX003 (ip), vehicle: saline with Tween-80 109 % of control

NC1CC1N (stereo not given)
inactive: dose: 6.25 mg/kg/injection, schedule: Q01DX009 (ip), vehicle: saline 101 % of control | dose: 12.5 mg/kg/injection, schedule: Q01DX001 (ip), vehicle: saline 107 % of control | [15] 101 % of control | [16] 107 % of control | [3] 100 % of control | [17] 101 % of control

COC(=O)NC1=Nc2ccccc2N(C(=O)Oc2ccccc2)S1
inactive: dose: 50.0 mg/kg/injection, schedule: Q01DX005 (ip), vehicle: acetone 100 % of control | dose: 100.0 mg/kg/injection, schedule: Q01DX005 (ip), vehicle: acetone 100 % of control | dose: 200.0 mg/kg/injection, schedule: Q01DX005 (ip), vehicle: acetone 107 % of control

COC(=O)c1c(-c2cc(OC)c(OC)cc2[N+](=O)[O-])c(C=O)n(C)c1C
inactive: dose: 100.0 mg/kg/injection, schedule: Q01DX001 (ip), vehicle: saline with Tween-80 100 % of control | dose: 200.0 mg/kg/injection, schedule: Q01DX001 (ip), vehicle: saline with Tween-80 99 % of control | dose: 400.0 mg/kg/injection, schedule: Q01DX001 (ip), vehicle: saline with Tween-80 91 % of control

CC1(C)OC2CC(=O)OCC23C1CC(=O)C1(C)C3CCC2(C)C(c3ccoc3)OC(=O)C3OC321 (stereo not given)
inactive: dose: 50.0 mg/kg/injection, schedule: Q01DX010 (ip), vehicle: saline 100 % of control | dose: 100.0 mg/kg/injection, schedule: Q01DX010 (ip), vehicle: saline 95 % of control | dose: 200.0 mg/kg/injection, schedule: Q01DX010 (ip), vehicle: saline 95 % of control

CCCCCCCCCCCCCCCCS(=O)(=O)N/N=c1\cc(-c2ccccc2Cl)c2ccccc2n1C
inactive: [15] 92 % of control | [3] 90 % of control | [4] 89 % of control and 90 % of control | [5] 89 % of control

CC(C)C1=C2C3CC(O)C(C=O)=CC(=O)C3(C)CCC2(C)CC1 (stereo not given)
inactive: dose: 6.25 mg/kg/injection, schedule: Q01DX009 (ip), vehicle: saline + alcohol 112 % of control | dose: 12.5 mg/kg/injection, schedule: Q01DX009 (ip), vehicle: saline + alcohol 110 % of control | dose: 25.0 mg/kg/injection, schedule: Q01DX009 (ip), vehicle: saline + alcohol 108 % of control

COc1c2occc2c(CSC(=N)N)c2ccc(=O)oc12
inactive: [16] 105 % of control | [17] 100 % of control | dose: 100.0 mg/kg/injection, schedule: Q01DX001 (ip), vehicle: saline 100 % of control

N#Cc1ccc(N2CCCC2)c(C#N)c1Cl
inactive: [1] 100 % of control | [2] 96 % of control | [9] 99 % of control

CC(C)C1OCN2CCCCC12 (stereo not given)
inactive: dose: 50.0 mg/kg/injection, schedule: Q01DX005 (ip), vehicle: saline 105 % of control | dose: 100.0 mg/kg/injection, schedule: Q01DX005 (ip), vehicle: saline 108 % of control | dose: 200.0 mg/kg/injection, schedule: Q01DX005 (ip), vehicle: saline 116 % of control

O=C(/C=C\c1ccc([N+](=O)[O-])cc1)c1ccccc(=O)c1O
inactive: dose: 12.5 mg/kg/injection, schedule: Q01DX001 (ip), vehicle: Klucel (hydroxypropylcellulose) (HPC) 95 % of control | dose: 25.0 mg/kg/injection, schedule: Q01DX001 (ip), vehicle: Klucel (hydroxypropylcellulose) (HPC) 100 % of control | dose: 50.0 mg/kg/injection, schedule: Q01DX001 (ip), vehicle: Klucel (hydroxypropylcellulose) (HPC) 99 % of control | dose: 100.0 mg/kg/injection, schedule: Q01DX001 (ip), vehicle: Klucel (hydroxypropylcellulose) (HPC) 98 % of control

CCOC(=O)CC(CS(=O)CP(=O)(OCC)OCC)C(=O)OCC (stereo not given)
inactive: [10] 91 % of control | [11] 92 % of control | dose: 30.0 mg/kg/injection, schedule: Q01DX005 (ip), vehicle: saline with Tween-80 102 % of control | [12] 102 % of control and 110 % of control

Cc1cc2c(cc1C)C(O)CCC(=O)N2 (stereo not given)
inactive: [12] 95 % of control | [13] 91 % of control | [14] 87 % of control

O=C(CSC(=S)N1CCCCC1)c1ccc([N+](=O)[O-])cc1
inactive: dose: 12.5 mg/kg/injection, schedule: Q01DX009 (ip), vehicle: distilled water + Tween-80 98 % of control | dose: 25.0 mg/kg/injection, schedule: Q01DX009 (ip), vehicle: distilled water + Tween-80 96 % of control | dose: 50.0 mg/kg/injection, schedule: Q01DX009 (ip), vehicle: distilled water + Tween-80 90 % of control | dose: 100.0 mg/kg/injection, schedule: Q01DX009 (ip), vehicle: distilled water + Tween-80 90 % of control | dose: 200.0 mg/kg/injection, schedule: Q01DX009 (ip), vehicle: distilled water + Tween-80 89 % of control

O=C(O)[C@H](Cc1ccccc1)N1C(=O)c2ccccc2C1=O
inactive: dose: 50.0 mg/kg/injection, schedule: Q01DX005 (ip), vehicle: DMSO 105 % of control | [1] 109 % of control | dose: 100.0 mg/kg/injection, schedule: Q01DX005 (ip), vehicle: DMSO 100 % of control | [2] 105 % of control | [7] 99 % of control | dose: 125.0 mg/kg/injection, schedule: Q01DX001 (ip), vehicle: saline with Tween-80 102 % of control | dose: 200.0 mg/kg/injection, schedule: Q01DX005 (ip), vehicle: DMSO 100 % of control | [9] 101 % of control | [8] 107 % of control | dose: 250.0 mg/kg/injection, schedule: Q01DX001 (ip), vehicle: saline with Tween-80 95 % of control | dose: 400.0 mg/kg/injection, schedule: Q01DX005 (ip), vehicle: DMSO 100 % of control | dose: 400.0 mg/kg/injection, schedule: Q01DX005 (ip), vehicle: saline with Tween-80 105 % of control | dose: 500.0 mg/kg/injection, schedule: Q01DX001 (ip), vehicle: saline with Tween-80 100 % of control and 105 % of control | dose: 800.0 mg/kg/injection, schedule: Q01DX005 (ip), vehicle: DMSO 107 % of control
